This test deals with T1, human PTH1 receptor (Homo sapiens, UniProt Q03431).
T1 sequence (Q03431 27-593): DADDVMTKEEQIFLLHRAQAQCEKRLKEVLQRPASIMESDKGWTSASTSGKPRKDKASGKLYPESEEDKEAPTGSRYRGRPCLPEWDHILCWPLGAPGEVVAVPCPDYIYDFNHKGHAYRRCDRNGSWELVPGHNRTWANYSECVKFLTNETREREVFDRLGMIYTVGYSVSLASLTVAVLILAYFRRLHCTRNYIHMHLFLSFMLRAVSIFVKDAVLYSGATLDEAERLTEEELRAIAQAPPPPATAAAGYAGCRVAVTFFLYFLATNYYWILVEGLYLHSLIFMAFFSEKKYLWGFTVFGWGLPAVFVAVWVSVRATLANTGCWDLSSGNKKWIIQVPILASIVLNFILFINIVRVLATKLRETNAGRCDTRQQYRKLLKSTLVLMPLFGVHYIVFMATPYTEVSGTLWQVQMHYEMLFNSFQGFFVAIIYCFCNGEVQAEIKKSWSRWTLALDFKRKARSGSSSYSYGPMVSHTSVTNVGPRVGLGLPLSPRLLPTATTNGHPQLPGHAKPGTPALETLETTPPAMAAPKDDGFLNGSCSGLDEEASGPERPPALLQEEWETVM
In words: In vitro cAMP signal activity in HKRK-B7 cells (LLC-PK1 cells overexpressing the human PTH1 receptor). The conditions noted are these: HKRK-B7 cells; compound at 1×10^−3 M; cAMP produced as percentage of that produced by hPTH(1-34) at 100 nM. In kind it is cell-based.
In the case of `Cc1ccc(C2=NC3(CCN(S(=O)(=O)/C=C/c4c(C)cc(C(=O)N5CCC(C)(O)CC5)cc4C)CC3)C(=O)N2)cc1C` [Compound 1237, 2-(3,4-dimethyl-phenyl)-8-{(E)-2-[4-(4-hydroxy-4-methyl-piperidine-1-carbonyl)-2,6-dimethyl-phenyl]-ethenesulfonyl}-1,3,8-triaza-spiro[4.5]dec-1-en-4-one], the “cAMP production activity (%)” value worked out at 96%.

As for `COc1ccc(C2=NC3(CCN(S(=O)(=O)/C=C/c4c(C)cc(C(=O)N5CCC(C)(O)CC5)cc4C)CC3)C(=O)N2)cc1C` [Compound 1238, 8-{(E)-2-[4-(4-hydroxy-4-methyl-piperidine-1-carbonyl)-2,6-dimethyl-phenyl]-ethenesulfonyl}-2-(4-methoxy-3-methyl-phenyl)-1,3,8-triaza-spiro[4.5]dec-1-en-4-one], the “cAMP production activity (%)” value stood at 73%.

Turning to `Cc1cc(C2=NC3(CCN(S(=O)(=O)/C=C/c4c(C)cc(C(=O)N5CCC(O)(CF)CC5)cc4C)CC3)C(=O)N2)c(C)cc1F` [Compound 1239, 2-(4-Fluoro-2,5-dimethyl-phenyl)-8-{(E)-2-[4-(4-fluoromethyl-4-hydroxy-piperidine-1-carbonyl)-2,6-dimethyl-phenyl]-ethenesulfonyl}-1,3,8-triaza-spiro[4.5]dec-1-en-4-one], the “cAMP production activity (%)” value worked out at 91%.

Consider `Cc1cc(C(=O)N2CCC(O)(CF)CC2)cc(C)c1/C=C/S(=O)(=O)N1CCC2(CC1)N=C(c1ccc(F)c(C)c1C)NC2=O` [Compound 1240, 2-(4-fluoro-2,3-dimethyl-phenyl)-8-{(E)-2-[4-(4-fluoromethyl-4-hydroxy-piperidine-1-carbonyl)-2,6-dimethyl-phenyl]-ethenesulfonyl}-1,3,8-triaza-spiro[4.5]dec-1-en-4-one], for which the “cAMP production activity (%)” value was determined as 95%.

Regarding `Cc1cc(C(=O)N2CCC(O)(CF)CC2)cc(C)c1/C=C/S(=O)(=O)N1CCC2(CC1)N=C(c1ccc(C(F)(F)F)c(Cl)c1)NC2=O` [Compound 1241, 2-(3-chloro-4-trifluoromethyl-phenyl)-8-{(E)-2-[4-(4-fluoromethyl-4-hydroxy-piperidine-1-carbonyl)-2,6-dimethyl-phenyl]-ethenesulfonyl}-1,3,8-triaza-spiro[4.5]dec-1-en-4-one], the “cAMP production activity (%)” value came out at 101%.

Take `Cc1cc(C(=O)N2CCC(O)(CF)CC2)cc(C)c1/C=C/S(=O)(=O)N1CCC2(CC1)N=C(c1ccc(F)c(Cl)c1)NC2=O` [Compound 1242, 2-(3-chloro-4-fluoro-phenyl)-8-{(E)-2-[4-(4-fluoromethyl-4-hydroxy-piperidine-1-carbonyl)-2,6-dimethyl-phenyl]-ethenesulfonyl}-1,3,8-triaza-spiro[4.5]dec-1-en-4-one]: the “cAMP production activity (%)” value stood at 106%.

Regarding `Cc1cc(C(=O)N2CCC(O)(CF)CC2)cc(C)c1/C=C/S(=O)(=O)N1CCC2(CC1)N=C(c1cccc(C(F)(F)C(F)(F)F)c1)NC2=O` [Compound 1243, 8-{(E)-2-[4-(4-fluoromethyl-4-hydroxy-piperidine-1-carbonyl)-2,6-dimethyl-phenyl]-ethenesulfonyl}-2-(3-pentafluoroethyl-phenyl)-1,3,8-triaza-spiro[4.5]dec-1-en-4-one], the “cAMP production activity (%)” value came out at 77%.

With `Cc1cc(C(=O)N2CCC(O)(CF)CC2)cc(C)c1/C=C/S(=O)(=O)N1CCC2(CC1)N=C(c1ccc(C(F)(F)C(F)(F)F)cc1)NC2=O` [Compound 1244, 8-{(E)-2-[4-(4-fluoromethyl-4-hydroxy-piperidine-1-carbonyl)-2,6-dimethyl-phenyl]-ethenesulfonyl}-2-(4-pentafluoroethyl-phenyl)-1,3,8-triaza-spiro[4.5]dec-1-en-4-one], the “cAMP production activity (%)” value turned out to be 96%.

On to `Cc1cc(C(=O)N2CCC(O)(CF)CC2)cc(C)c1/C=C/S(=O)(=O)N1CCC2(CC1)N=C(c1ccc(S(F)(F)(F)(F)F)cc1)NC2=O` [Compound 1245, 8-{(E)-2-[4-(4-fluoromethyl-4-hydroxy-piperidine-1-carbonyl)-2,6-dimethyl-phenyl]-ethenesulfonyl}-2-(4-pentafluorosulfanyl-phenyl)-1,3,8-triaza-spiro[4.5]dec-1-en-4-one], for which the “cAMP production activity (%)” value was determined as 115%.
